From the OPERA property sets (Mansouri et al. 2018)

| SMILES | logP |
| --- | --- |
| COc1cccc(S(N)(=O)=O)c1 | 0.53 |
| CS(=O)(=O)Nc1ccc(S(N)(=O)=O)cc1 | -0.4 |
| NS(=O)(=O)c1ccc(-c2ccccc2)cc1 | 2.24 |
| CCCCOc1cccc(S(N)(=O)=O)c1 | 2.06 |
| CCCCOc1ccc(S(N)(=O)=O)cc1 | 2.05 |
| N#Cc1cccc(S(N)(=O)=O)c1 | 0.24 |
| NS(=O)(=O)c1cccc(Br)c1 | 1.35 |

More lines, now with the values ahead:

| logP | SMILES |
| --- | --- |
| 0.21 | CC(=O)c1cccc(S(N)(=O)=O)c1 |
| 1.58 | NS(=O)(=O)c1cccc(I)c1 |
| -0.83 | NC(=O)c1ccc(S(N)(=O)=O)cc1 |
| 2.99 | CCCCCCOc1ccc(S(N)(=O)=O)cc1[N+](=O)[O-] |
| -0.84 | NC(=O)c1cccc(S(N)(=O)=O)c1 |
| -0.04 | CC(=O)Nc1ccc(S(N)(=O)=O)cc1 |
